Measured values as given in US12371454B2, “Cyclic peptide compound having Kras inhibitory action” (priority 2019, dated 2025).
Starred links: 1 amine or outer side, 2 acyl side, 3 side chain; linkers in the order of their positions; H or OH if unused. Positions of bridges follow the written chain, without caps; N, C: chain ends. Non-standard residues stand in square brackets, D forms with d. Residues, ends and D or L forms follow the SMILES beside them. *: point of attachment. hPhe(3-Cl-4-CF3) = N[C@@H](CCc1ccc(C(F)(F)F)c(Cl)c1)C(=O)O; X39 = COc1ccc(C[C@@H](C(=O)[*:2])N(C)[*:1])cn1; NEtPhe(4-Me) = CCN[C@@H](Cc1ccc(C)cc1)C(=O)O; NMePhe(4-Cl) = CN[C@@H](Cc1ccc(Cl)cc1)C(=O)O; NMePhe(4-Me) = CN[C@@H](Cc1ccc(C)cc1)C(=O)O; NMePhe(2-Cl) = CN[C@@H](Cc1ccccc1Cl)C(=O)O; NMedβ3hAla = C[C@H](CC(=O)[*:2])N(C)[*:1]; Phe(3-Cl) = N[C@@H](Cc1cccc(Cl)c1)C(=O)O; NMeGly(cPent) = CN[C@H](C(=O)O)C1CCCC1; Phe(3-I) = N[C@@H](Cc1cccc(I)c1)C(=O)O; NMeCha = CN[C@@H](CC1CCCCC1)C(=O)O; Hyp = O=C(O)[C@@H]1C[C@@H](O)CN1; NMeChg = CN[C@H](C(=O)O)C1CCCCC1; NMeF = CN[C@@H](Cc1ccccc1)C(=O)O; NMeI = CC[C@H](C)[C@H](NC)C(=O)O; hPhe = N[C@@H](CCc1ccccc1)C(=O)O; NMeD = CN[C@@H](CC(=O)O)C(=O)O; NMeL = CN[C@@H](CC(C)C)C(=O)O; NMeV = CN[C@H](C(=O)O)C(C)C; d(β3hA) = C[C@@H](N)CC(=O)O; NMeS = CN[C@@H](CO)C(=O)O; NMeA = CN[C@@H](C)C(=O)O; NMeAib = CNC(C)(C)C(=O)O; Piperidide = C1CCN(*)CC1; Pyrrolidide = C1CCN(*)C1; dNMeA = CN[C@H](C)C(=O)O; Ac5c = NC1(C(=O)O)CCCC1; Aze = O=C(O)[C@@H]1CCN1; Ac4c = NC1(C(=O)O)CCC1; Sar = CNCC(=O)O

Target: T1, Kras and SOS1 (biotin-tagged human Kras loaded with GDP, His-tagged human SOS1) (Homo sapiens, UniProt P01116, G12D)
T1 construct: made in house; host or cells: E. coli (stated for Kras only)
T1 sequence (P01116 1-188 isoform P01116-2 G12D): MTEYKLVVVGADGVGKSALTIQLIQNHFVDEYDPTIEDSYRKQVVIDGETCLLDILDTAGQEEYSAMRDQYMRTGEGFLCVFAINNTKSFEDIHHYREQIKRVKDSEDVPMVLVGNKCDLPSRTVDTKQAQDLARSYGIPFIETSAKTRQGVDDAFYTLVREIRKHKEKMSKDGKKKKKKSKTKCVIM
Experiment: Protein-protein interaction inhibition between Kras and SOS1 (KrasGl2D-SOS PPI) using AlphaScreen
Type: binding
Conditions: AlphaScreen; biotin-tagged human Kras loaded with GDP, His-tagged human SOS1; read-out: KRAS G12D-SOS PPI IC50
Method in brief: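 Donor beads (nickel) hold His-SOS1; acceptor beads (streptavidin) hold biotin-Kras bound to GDP. Signal measured at 520-620 nm following 680 nm excitation.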

Row | Structure (SMILES) | IC50
1 | CC[C@H](C)[C@@H]1NC(=O)[C@H](C)N(C)C(=O)C[C@@H](C(=O)N2CCCC2)NC(=O)[C@H](C(C)C)N(C)C(=O)[C@H](Cc2ccccc2)N(C)C(=O)[C@H](C)NC(=O)[C@H](Cc2cccc(Cl)c2)NC(=O)CN(C)C(=O)[C@H](Cc2ccc(Cl)cc2)N(C)C(=O)CN(C)C(=O)CN(C)C1=O [Compound 612] ([NMeA]I[Sar][Sar][NMePhe(4-Cl)][Sar][Phe(3-Cl)]A[NMeF][NMeV]D-Pyrrolidide; lactam N-11) | 120 nM
2 | CC[C@H](C)[C@@H]1NC(=O)[C@H](C)N(C)C(=O)C[C@@H](C(=O)N2CCCC2)NC(=O)[C@H](CC(C)C)N(C)C(=O)[C@H](Cc2ccccc2)N(C)C(=O)[C@H](CC(C)C)NC(=O)[C@H](Cc2ccccc2)NC(=O)CN(C)C(=O)[C@H](Cc2ccc(Cl)cc2)N(C)C(=O)CN(C)C(=O)CN(C)C1=O [Compound 613] ([NMeA]I[Sar][Sar][NMePhe(4-Cl)][Sar]FL[NMeF][NMeL]D-Pyrrolidide; lactam N-11) | 500 nM
3 | CC[C@H](C)[C@@H]1NC(=O)[C@H](CC(C)C)N(C)C(=O)C[C@@H](C(=O)N2CCCCC2)N(C)C(=O)[C@H](C2CCCCC2)N(C)C(=O)C2(CCCC2)NC(=O)[C@H](Cc2ccc(OC)nc2)N(C)C(=O)[C@H](CCc2ccc(C(F)(F)F)c(Cl)c2)NC(=O)CN(C)C(=O)[C@H](CC2CCCCC2)N(C)C(=O)[C@@H]2CCN2C(=O)CN(C)C1=O [Compound 614] ([NMeL]I[Sar][Aze][NMeCha][Sar][hPhe(3-Cl-4-CF3)][X39][Ac5c][NMeChg][NMeD]-Piperidide; lactam N-11) | 24 nM
4 | CC[C@H](C)[C@@H]1NC(=O)[C@H](CC(C)C)N(C)C(=O)C[C@@H](C(=O)N2CCCCC2)N(C)C(=O)[C@H](CC(C)C)NC(=O)C(C)(C)N(C)C(=O)[C@H](CCc2ccccc2)NC(=O)[C@H](Cc2cccc(I)c2)NC(=O)CN(C)C(=O)[C@H](Cc2ccc(C)cc2)N(C)C(=O)[C@@H]2CCN2C(=O)[C@H](C)N(C)C1=O [Compound 617] ([NMeL]I[NMeA][Aze][NMePhe(4-Me)][Sar][Phe(3-I)][hPhe][NMeAib]L[NMeD]-Piperidide; lactam N-11) | 110 nM
5 | CC[C@H](C)[C@@H]1NC(=O)[C@H](CC(C)C)N(C)C(=O)C[C@@H](C(=O)N2CCCCC2)N(C)C(=O)[C@H](CC(C)C)NC(=O)[C@H](Cc2ccccc2)N(C)C(=O)[C@H](C)NC(=O)[C@H](Cc2cccc(I)c2)NC(=O)CN(C)C(=O)[C@H](Cc2ccc(C)cc2)N(C)C(=O)CN(C)C(=O)CN(C)C1=O [Compound 619] ([NMeL]I[Sar][Sar][NMePhe(4-Me)][Sar][Phe(3-I)]A[NMeF]L[NMeD]-Piperidide; lactam N-11) | 19 nM
6 | CC[C@H](C)[C@@H]1NC(=O)[C@H](C)N(C)C(=O)C[C@@H](C)NC(=O)[C@H](C2CCCC2)N(C)C(=O)C2(CCCC2)NC(=O)[C@@H]2CCCN2C(=O)[C@H](CCc2ccc(C(F)(F)F)c(Cl)c2)NC(=O)[C@@H](C)N(C)C(=O)[C@H](CC(C)C)N(C)C(=O)CN(C)C(=O)CN(C)C1=O [Compound 621] (cyclo([Ac5c][NMeGly(cPent)][d(β3hA)][NMeA]I[Sar][Sar][NMeL][dNMeA][hPhe(3-Cl-4-CF3)]P)) | 59 nM
7 | CC[C@H](C)[C@@H]1NC(=O)[C@H](CC(C)C)N(C)C(=O)C[C@@H](C(=O)N2CCCCC2)N(C)C(=O)[C@H](C2CCCCC2)N(C)C(=O)C2(CCCC2)NC(=O)[C@@H]2CCCN2C(=O)[C@H](CCc2ccc(C(F)(F)F)c(Cl)c2)NC(=O)CN(C)C(=O)[C@H](COC)N(C)C(=O)CN(C)C(=O)CN(C)C1=O [Compound 623] ([NMeL]I[Sar][Sar][NMeS](Me)[Sar][hPhe(3-Cl-4-CF3)]P[Ac5c][NMeChg][NMeD]-Piperidide; lactam N-11) | 1.8 nM
8 | CC[C@H](C)[C@@H]1NC(=O)[C@H](C)N(C)C(=O)C[C@@H](C(=O)N2CCCC2)N(C)C(=O)[C@H](C(C)C)N(C)C(=O)[C@H](C)NC(=O)[C@H](Cc2ccccc2Cl)N(C)C(=O)[C@H](CCc2ccc(C(F)(F)F)c(Cl)c2)NC(=O)CN(C)C(=O)[C@H](CC2CCCCC2)N(C)C(=O)CN(C)C(=O)CN(C)C1=O [Compound 624] ([NMeA]I[Sar][Sar][NMeCha][Sar][hPhe(3-Cl-4-CF3)][NMePhe(2-Cl)]A[NMeV][NMeD]-Pyrrolidide; lactam N-11) | 160 nM
9 | CCO[C@@H]1C[C@H]2C(=O)NC3(CCC3)C(=O)N(C)[C@@H]([C@@H](C)CC)C(=O)N(C)[C@H](C)CC(=O)N(C)[C@@H](CC(C)C)C(=O)N[C@@H]([C@@H](C)CC)C(=O)N(C)[C@@H](C)C(=O)N3CC[C@H]3C(=O)N(CC)[C@@H](Cc3ccc(C)cc3)C(=O)N(C)CC(=O)N[C@@H](CCc3ccc(C(F)(F)F)c(Cl)c3)C(=O)N2C1 [Compound 626] (cyclo([Ac4c][NMeI][NMedβ3hAla][NMeL]I[NMeA][Aze][NEtPhe(4-Me)][Sar][hPhe(3-Cl-4-CF3)][Hyp](Et))) | 2.4 nM
